Assay [1] deals with T1, D(3) dopamine receptor (Homo sapiens, UniProt P35462). Briefly: Displacement of [3H]spiperone from human cloned dopamine D3 receptor expressed in CHO cells. Type of assay: cell-based. A general note: In a radioligand displacement assay an active substance lowers the binding of a labelled ligand.
In assay [2] the target is T2, D(4) dopamine receptor (Homo sapiens, UniProt P21917).
T2 sequence (P21917 whole entry): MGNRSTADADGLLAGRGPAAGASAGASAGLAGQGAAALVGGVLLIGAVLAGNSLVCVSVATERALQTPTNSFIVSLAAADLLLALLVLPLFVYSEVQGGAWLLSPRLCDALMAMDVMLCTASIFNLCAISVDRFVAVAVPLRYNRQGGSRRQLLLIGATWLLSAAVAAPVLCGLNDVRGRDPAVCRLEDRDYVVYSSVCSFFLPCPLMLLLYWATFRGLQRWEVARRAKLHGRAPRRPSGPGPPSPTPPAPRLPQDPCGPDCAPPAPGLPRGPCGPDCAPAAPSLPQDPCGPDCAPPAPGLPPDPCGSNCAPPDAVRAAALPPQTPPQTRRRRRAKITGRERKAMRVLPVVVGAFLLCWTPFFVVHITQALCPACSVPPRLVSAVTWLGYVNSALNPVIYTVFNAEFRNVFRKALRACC
Nature of the assay: Displacement of [3H]spiperone from human cloned dopamine D4 receptor expressed in CHO cells. Type of assay: cell-based.

The next assay concerns the target D(1A) dopamine receptor (Sus scrofa, UniProt P50130). Nature of the assay: Displacement of [3H]SCH-23390 from dopamine D1 receptor in porcine striatal membrane. Type of assay: cell membranes, Striatum.
Assay [3] concerns the target T3, D(2) dopamine receptor (Homo sapiens, UniProt P14416). Briefly: Displacement of [3H]spiperone from human cloned dopamine D2(long) receptor expressed in CHO cells. It counts as cell-based.
Assay [4] concerns the target T3, D(2) dopamine receptor. Nature of the assay: Displacement of [3H]spiperone from human cloned dopamine D2(short) receptor expressed in CHO cells. Type of assay: cell-based.
Assay [5] concerns the target T3, D(2) dopamine receptor. Nature of the assay: Intrinsic activity against dopamine D2(short) receptor assessed as [3H]thymidine uptake in CHO cells relative to quinpirole by mitogenesis assay. It counts as functional, cell-based.
The target in assay [6] is T3, D(2) dopamine receptor. Nature of the assay: Intrinsic activity against dopamine D2(short) receptor assessed as [3H]thymidine uptake in CHO cells by mitogenesis assay. It counts as functional, cell-based.
Assay [7] deals with T1, D(3) dopamine receptor. Briefly: Intrinsic activity against dopamine D3 receptor assessed as [3H]thymidine uptake in CHO cells by mitogenesis assay.
The target in assay [8] is T2, D(4) dopamine receptor. Nature of the assay: Intrinsic activity against dopamine D4 receptor assessed as [3H]thymidine uptake in CHO cells by mitogenesis assay. It counts as functional, cell-based.
Assay [9] addresses 5-hydroxytryptamine receptor 2A (Sus scrofa, UniProt P50129). Nature of the assay: Displacement of […] from 5HT2 receptor in porcine striatal membrane. It counts as cell membranes, Striatum.
For assay [10], the target named is T3, D(2) dopamine receptor. Nature of the assay: Intrinsic activity against dopamine D2(long) receptor assessed as [3H]thymidine uptake in CHO cells relative to quinpirole by mitogenesis assay. It counts as functional, cell-based.
The target of assay [11] is T3, D(2) dopamine receptor. Nature of the assay: Intrinsic activity against dopamine D2(long) receptor assessed as [3H]thymidine uptake in CHO cells by mitogenesis assay. Type of assay: functional, cell-based.
For assay [12], the target named is T3, D(2) dopamine receptor. Nature of the assay: Intrinsic activity against dopamine D2(long) receptor expressed in CHO cells relative to quinpirole by GTPgammaS assay. It counts as functional, cell-based.
The target in assay [13] is T3, D(2) dopamine receptor. Nature of the assay: Intrinsic activity against dopamine D2(short) receptor expressed in CHO cells relative to quinpirole by GTPgammaS assay. It counts as functional, cell-based.
Assay [14] deals with T3, D(2) dopamine receptor. Nature of the assay: Intrinsic activity against dopamine D2(short) receptor expressed in CHO cells by GTPgammaS assay. It counts as functional, cell-based.
Assay [15] concerns the target T2, D(4) dopamine receptor. Nature of the assay: Intrinsic activity against dopamine D4 receptor expressed in CHO cells by GTPgammaS assay. Type of assay: functional, cell-based.
The target in assay [16] is T3, D(2) dopamine receptor. Nature of the assay: Intrinsic activity against dopamine D2(long) receptor expressed in CHO cells by GTPgammaS assay. It counts as functional, cell-based.

As usually defined, the Ki is a measure of affinity in units of concentration, obtained from inhibition or displacement. In general, EC50 refers to the concentration that produces a half-maximal response.

Structures are written as SMILES.

T1 sequence (P35462 whole entry): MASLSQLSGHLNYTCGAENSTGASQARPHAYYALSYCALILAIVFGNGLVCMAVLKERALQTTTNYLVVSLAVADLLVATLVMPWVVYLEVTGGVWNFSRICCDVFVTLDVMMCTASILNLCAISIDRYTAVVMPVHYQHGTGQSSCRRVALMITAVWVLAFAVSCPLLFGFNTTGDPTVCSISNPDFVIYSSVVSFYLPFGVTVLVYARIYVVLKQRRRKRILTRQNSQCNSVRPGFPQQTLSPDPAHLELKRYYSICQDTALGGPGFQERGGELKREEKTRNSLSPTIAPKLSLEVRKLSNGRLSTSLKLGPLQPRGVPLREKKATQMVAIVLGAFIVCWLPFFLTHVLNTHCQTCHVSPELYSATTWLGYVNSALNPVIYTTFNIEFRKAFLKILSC
Sequence of D(1A) dopamine receptor (P50130 whole entry): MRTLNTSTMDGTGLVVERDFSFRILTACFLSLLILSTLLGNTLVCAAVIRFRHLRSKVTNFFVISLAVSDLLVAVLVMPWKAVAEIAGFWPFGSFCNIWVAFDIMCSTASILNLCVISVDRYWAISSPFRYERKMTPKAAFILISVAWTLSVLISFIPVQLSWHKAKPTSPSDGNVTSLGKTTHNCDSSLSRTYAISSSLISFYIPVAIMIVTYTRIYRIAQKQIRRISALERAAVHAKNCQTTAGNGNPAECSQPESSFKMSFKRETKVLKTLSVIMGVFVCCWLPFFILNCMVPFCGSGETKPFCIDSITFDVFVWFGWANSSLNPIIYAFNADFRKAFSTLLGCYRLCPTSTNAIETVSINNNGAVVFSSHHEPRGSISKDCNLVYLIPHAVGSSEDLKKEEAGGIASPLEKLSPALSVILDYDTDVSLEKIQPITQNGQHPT
T3 sequence (P14416 whole entry): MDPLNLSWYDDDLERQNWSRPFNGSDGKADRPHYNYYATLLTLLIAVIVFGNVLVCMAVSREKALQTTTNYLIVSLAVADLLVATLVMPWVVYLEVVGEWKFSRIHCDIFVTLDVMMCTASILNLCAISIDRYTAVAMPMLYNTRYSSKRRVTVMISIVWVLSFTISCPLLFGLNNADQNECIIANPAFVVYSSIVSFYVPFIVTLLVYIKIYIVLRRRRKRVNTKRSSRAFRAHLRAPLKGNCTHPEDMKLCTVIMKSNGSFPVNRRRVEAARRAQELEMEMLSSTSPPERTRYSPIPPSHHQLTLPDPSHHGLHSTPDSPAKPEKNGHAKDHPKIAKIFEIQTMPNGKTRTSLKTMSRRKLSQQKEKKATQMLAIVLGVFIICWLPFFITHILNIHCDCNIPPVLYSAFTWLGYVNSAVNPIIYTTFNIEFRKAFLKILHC
Sequence of 5-hydroxytryptamine receptor 2A (P50129 whole entry): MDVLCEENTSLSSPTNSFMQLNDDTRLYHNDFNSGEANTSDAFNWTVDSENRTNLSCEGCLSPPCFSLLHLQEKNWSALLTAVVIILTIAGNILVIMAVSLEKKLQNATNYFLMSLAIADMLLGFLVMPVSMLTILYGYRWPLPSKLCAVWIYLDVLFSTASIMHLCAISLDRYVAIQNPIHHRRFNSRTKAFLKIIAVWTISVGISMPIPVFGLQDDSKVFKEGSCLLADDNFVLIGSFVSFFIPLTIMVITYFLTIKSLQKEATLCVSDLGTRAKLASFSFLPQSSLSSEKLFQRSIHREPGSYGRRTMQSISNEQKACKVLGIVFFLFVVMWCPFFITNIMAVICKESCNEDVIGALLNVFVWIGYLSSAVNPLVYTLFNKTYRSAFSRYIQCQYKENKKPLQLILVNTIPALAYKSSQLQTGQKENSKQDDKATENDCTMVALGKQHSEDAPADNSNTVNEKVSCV

`c1ccc(N2CCN(Cc3cn(-c4ccccc4)nn3)CC2)cc1`: the inhibition constant Ki on D(3) dopamine receptor [1] amounted to 1.2 µM; on D(4) dopamine receptor [2], 0.0099 µM; on D(1A) dopamine receptor, 21 µM; at D(2) dopamine receptor [3], 1.5 µM; on D(2) dopamine receptor [4] (read-out: Ki), 0.86 µM.
For `c1ccc(-n2cc(CN3CCN(c4ncccn4)CC3)cn2)cc1`, the Ki on D(3) dopamine receptor [1] came to 2.9 µM; at D(4) dopamine receptor [2], 0.31 µM; at D(1A) dopamine receptor, 7.1 µM; at D(2) dopamine receptor [3], 6 µM; at D(2) dopamine receptor [4] (read-out: Ki), 14 µM.
Regarding `COc1ccccc1N1CCN(Cc2cn(-c3ccccc3)nn2)CC1`, the Ki is 0.34 µM at D(3) dopamine receptor [1]; 0.0027 µM on D(4) dopamine receptor [2]; 27 µM on D(1A) dopamine receptor; 0.12 µM on D(2) dopamine receptor [3]; 0.065 µM at D(2) dopamine receptor [4] (read-out: Ki).
Turning to `Clc1ccc(N2CCN(Cc3cnn(-c4ccccc4)c3)CC2)cc1`, the Ki is 1.9 µM on D(3) dopamine receptor [1]; 0.0029 µM on D(4) dopamine receptor [2]; 7.5 µM on D(1A) dopamine receptor; 2.9 µM at D(2) dopamine receptor [3]; 1.9 µM at D(2) dopamine receptor [4].
As for `c1ccc(-c2c[nH]c(CN3CCN(c4ccccc4)CC3)c2)cc1`, the inhibitory constant (Ki) amounted to 0.514 µM at D(3) dopamine receptor [1] and 2.1 µM on D(1A) dopamine receptor.
Take `c1ccc(N2CCN(Cc3cnn(-c4ccccc4)c3)CC2)cc1`: the inhibitory constant (Ki) at D(3) dopamine receptor [1] came out at 0.14 µM; on D(4) dopamine receptor [2], 0.001 µM; at D(1A) dopamine receptor, 1.6 µM; at D(2) dopamine receptor [3], 0.14 µM; at D(2) dopamine receptor [4] (read-out: Ki) it was 0.075 µM.
In the case of `c1ccc(N2CCN(Cc3ccc(-n4cccn4)cc3)CC2)cc1`, the inhibitory constant (Ki) on D(3) dopamine receptor [1] worked out at 2.1 µM; at D(4) dopamine receptor [2] it was 0.02 µM; on D(1A) dopamine receptor it was 7.6 µM; on D(2) dopamine receptor [3], 3 µM; on D(2) dopamine receptor [4] (read-out: Ki), 2.4 µM.
For the compound `COc1ccccc1N1CCN(Cc2cnn(-c3ccccn3)c2)CC1`, the Ki at D(3) dopamine receptor [1] was determined as 0.072 µM; at D(4) dopamine receptor [2], 0.00044 µM; at D(1A) dopamine receptor, 1.9 µM; at D(2) dopamine receptor [3] it was 0.04 µM; on D(2) dopamine receptor [4] (read-out: Ki) it was 0.031 µM.
Take `Fc1ccc(N2CCN(Cc3cnn(-c4ccccc4)c3)CC2)cc1`: the inhibition constant Ki is 0.54 µM on D(3) dopamine receptor [1]; 0.0029 µM at D(4) dopamine receptor [2]; 1.9 µM at D(1A) dopamine receptor; 0.45 µM on D(2) dopamine receptor [3]; 0.4 µM on D(2) dopamine receptor [4] (read-out: Ki).
The matching figures for `Cc1c(CN2CCN(c3ccccc3)CC2)cnn1-c1ccccc1`: 0.32 µM, 0.0053 µM, 0.56 µM, 0.63 µM and 0.25 µM.
`Fc1ccccc1N1CCN(Cc2cnn(-c3ccccc3)c2)CC1`: the Ki at D(3) dopamine receptor [1] turned out to be 0.067 µM; at D(4) dopamine receptor [2], 0.0007 µM; at D(1A) dopamine receptor, 0.68 µM; on D(2) dopamine receptor [3] it was 0.063 µM; at D(2) dopamine receptor [4] (read-out: Ki) it was 0.037 µM.
For `c1ccc(N2CCN(Cc3cnn(-c4ccccn4)c3)CC2)cc1`, the inhibition constant (Ki) on D(3) dopamine receptor [1] amounted to 0.16 µM; on D(4) dopamine receptor [2], 0.0026 µM; at D(1A) dopamine receptor, 1.6 µM; at D(2) dopamine receptor [3], 0.34 µM; at D(2) dopamine receptor [4] (read-out: Ki), 0.19 µM.
Take `C1=C(c2ccccc2)CCN(Cc2cn(-c3ccccc3)nn2)C1`: the inhibition constant Ki is 0.094 µM at D(3) dopamine receptor [1]; 0.0032 µM on D(4) dopamine receptor [2]; 10 µM on D(1A) dopamine receptor; 0.22 µM at D(2) dopamine receptor [3]; 0.11 µM at D(2) dopamine receptor [4] (read-out: Ki).
For `COc1ccccc1N1CCN(Cc2cnn(-c3ccccc3)c2)CC1`, the Ki at D(3) dopamine receptor [1] is 0.035 µM; at D(4) dopamine receptor [2], 0.00028 µM; at D(1A) dopamine receptor, 1 µM; in assay [9], 1.3 µM; at D(2) dopamine receptor [3] it was 0.011 µM; on D(2) dopamine receptor [4] (read-out: Ki), 0.008 µM. Further, the values for the Efficacy on D(2) dopamine receptor [5] and on D(2) dopamine receptor [10] were 66% and 56%, respectively. Besides, the EC50 on D(2) dopamine receptor [6] is 0.00022 µM; on D(3) dopamine receptor [7], 0.00021 µM; at D(4) dopamine receptor [8], 0.0006 µM; at D(2) dopamine receptor [11] it was 0.00028 µM.
With `Cc1nn(-c2ccccc2)cc1CN1CCN(c2ccccc2)CC1`, the Ki was found to be 0.36 µM at D(3) dopamine receptor [1]; 0.001 µM at D(4) dopamine receptor [2]; 3.9 µM on D(1A) dopamine receptor; 0.071 µM on D(2) dopamine receptor [3]; 0.043 µM at D(2) dopamine receptor [4] (read-out: Ki).
As for `C1=C(c2ccccc2)CCN(Cc2cnn(-c3ccccc3)c2)C1`, the Ki at D(3) dopamine receptor [1] is 0.033 µM; on D(4) dopamine receptor [2], 0.00059 µM; on D(1A) dopamine receptor, 3 µM; in assay [9], 2.1 µM; on D(2) dopamine receptor [3], 0.038 µM; at D(2) dopamine receptor [4] (read-out: Ki) it was 0.028 µM. In addition, the Efficacy at D(2) dopamine receptor [12] worked out at 45%; at D(2) dopamine receptor [5] it was 30%; at D(2) dopamine receptor [13] it was 17%; on D(2) dopamine receptor [10], 54%. Besides, the EC50 on D(2) dopamine receptor [6] stood at 0.0017 µM; at D(2) dopamine receptor [14], 0.032 µM; at D(3) dopamine receptor [7] it was 0.0033 µM; on D(4) dopamine receptor [8], 0.0056 µM; at D(4) dopamine receptor [15] it was 0.0095 µM; at D(2) dopamine receptor [11], 0.003 µM. Moreover, the EC50 on D(2) dopamine receptor [16] was 0.025 µM.
